From patent US6410558B1, “Fungicides for the control of take-all disease of plants” (Monsanto Technology LLC, priority 1991, dated 2002)

Columns and labels:
[1] = system: Gaeumannomyces graminis var. tritici (Ggt); assay: In vitro Assay: mycelial growth of Ggt on minimal media agar plates containing test compound; type: cell-based; conditions: dark, 19-20° C., 4 to 5 days, diameter of mycelial growth; for inhibition at 0.1 ppm / inhibition at 1 ppm / inhibition at 10 ppm: Gaeumannomyces graminis; for inhibition at 0.1 ppm: read-out: In vitro (ppm) 0.1, Percent Inhibition; for inhibition at 1 ppm: read-out: In vitro (ppm) 1, Percent Inhibition; for inhibition at 10 ppm: read-out: In vitro (ppm) 10, Percent Inhibition
In short: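 Ggt mycelial diameter read after 4 to 5 days in darkness at 19-20° C, from three 4-mm plugs placed on Czapek Dox minimal agar containing test compound delivered in acetone. Inhibition expressed as percent versus untreated plates, plug size (4 mm) subtracted from both.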

Ggt = assay: In vivo Assay: control of Ggt on wheat grown in pots of Ggt-infested soil, root disease rating; set-up: species or system Gaeumannomyces graminis var. tritici; conditions: 0.5 mg active ingredient per pot, 'Bergen' or 'Anza' wheat in Ggt-infested soil, after four weeks, vs untreated control; for pest or weed control at 0.5 mg/pot: Gaeumannomyces graminis, 672 h, read-out: In vivo, percent disease control
Description: Compounds are tested for control of Ggt on ‘Bergen’ or ‘Anza’ varieties of wheat grown in 3-inch square pots containing soil infested with Ggt. The infestation is accomplished by mixing the soil with an inoculum prepared by growing Ggt on ¼ strength potato dextrose agar (4.875 g potato dextrose agar, 5.0 g Bacto agar, 500 mL distilled, deionized water) in plates and using plugs from the plates to infest sterile oats (400 cc whole oats, 350 mL deionized water, autoclaved). After a one-month incubation period at room temperature, the oats are dried and mixed with the soil at 4% v/v. Four wheat seeds are placed on top of the soil in each pot. The test compounds are prepared as an 1:9 acetone/water v/v solution containing 0.18% Tween® 20 to provide a treatment rate of 0.5 mg active ingredient per pot, treated with 3 mL test solution per pot. Five pots are used for each treatment level and the controls, which are untreated, inoculated and non-inoculated pots. After one hour drying time, the seeds are covered with more of the appropriate soil and a layer of vermiculite. The pots are placed in a growth chamber and watered each day. After four weeks, each pot is evaluated for evidence of disease by examination of the seminal roots of each plant under a dissecting microscope. A 0 to 5 rating scale having the following meanings is used:
0=no runner hyphae or lesions present
1=runner hyphae and a few small lesions present on <10% of root system
2=runner hyphae and small lesions present on 10-25% of root system
3=runner hyphae and lesions present on 25-50% of root system
4=runner hyphae and many, large, coalescing lesions on >50% of root system
5=root system and culm completely inundated with lesions and runner hyphae
From each set of five replicates a high and low score is eliminated and a replicate mean is calculated by the average of the remaining three scores. This mean score is then compared to the untreated control score and a percent disease control is calculated.

Row | SMILES | In vitro (ppm) 0.1, Percent Inhibition ([1]; 0.1 ppm in minimal media agar) [%] | In vitro (ppm) 1, Percent Inhibition ([1]; 1 ppm in minimal media agar) [%] | In vitro (ppm) 10, Percent Inhibition ([1]; 10 ppm in minimal media agar) [%] | In vivo, percent disease control (Ggt) [%] | inhibition at 0.1 ppm ([1]; 0.1 ppm in minimal media agar) [%] | inhibition at 1 ppm ([1]; 1 ppm in minimal media agar) [%] | inhibition at 10 ppm ([1]; 10 ppm in minimal media agar) [%] | pest or weed control at 0.5 mg/pot (Ggt) [%]
1 | CN(C)NC(=O)c1c(Cl)cccc1[Si](C)(C)C [Example 99, 2-Chloro-6-(trimethylsilyl)-2,2-dimethylhydrazide-benzoic acid] | 5 | 72 | 95 | 59 | – | – | – | –
2 | CCN(CC)C(=O)c1c(CO)ccc(F)c1[Si](C)(C)C [Example 54, N,N-Diethyl-3-fluoro-6-(hydroxymethyl)-2-(trimethylsilyl)benzamide] | – | – | – | – | < 0 | 2 | 43 | 52
3 | Cc1ccccc1NC(=O)c1c(Cl)cccc1[Si](C)(C)C [Example 33, 2-Chloro-N-(2-methylphenyl)-6-(trimethylsilyl)benzamide] | – | – | – | – | < 0 | 44 | 100 | 12
4 | CCNC(=O)c1c(Cl)cccc1OC(C)(C)C [Example 89, N-Ethyl-2-chloro-6-(1,1-dimethylethoxy)benzamide] | – | – | – | – | 19 | 85 | 100 | 96
5 | CCNC(=O)c1c(Cl)ccc([N+](=O)[O-])c1[Si](C)(C)C [Example 215, 6-Chloro-N-ethyl-3-nitro-2-(trimethylsilyl)benzamide] | – | – | – | – | 46 | 96 | 100 | 57
6 | CCNC(=O)c1c(Cl)cccc1[Si](C)(C)CCl [Example 83, N-Ethyl-2-chloro-6-[(chloromethyl)dimethylsilyl]benzamide] | – | – | – | – | 100 | 100 | 100 | 99
7 | CC1CN(C(=O)c2c(Cl)cccc2[Si](C)(C)C)CC(C)O1 (stereo not drawn) [Example 130, N-[2-Chloro-6-(trimethylsilyl)benzoyl]-2,6-dimethylmorpholine] | – | – | – | – | 16 | 13 | 39 | 1
8 | CCNC(=O)c1cc([Si](C)(C)C)sc1[Si](C)(C)C [Example 269, N-Ethyl-2,5-bis(trimethylsilyl)-3-thiophenecarboxamide] | – | – | – | – | < 0 | 91 | 100 | 4
9 | CCN(CC)C(=O)c1c(Cl)ccc(F)c1[Si](C)(C)C [Example 38, 6-Chloro-N,N-diethyl-3-fluoro-2-(trimethylsilyl)benzamide] | – | – | – | – | 53 | 79 | 100 | 95
10 | CCNC(=O)c1ccccc1N(C)C(C)(C)C [Example 188, 2-[(1,1-Dimethylethyl)methylamino]-N-ethylbenzamide] | – | – | – | – | 29 | 71 | 100 | 15
11 | C=CCNC(=O)NC(=O)c1c(Cl)cccc1[Si](C)(C)C [Example 165, 2-Chloro-N-[(2-propenylamino)carbonyl]-6-(trimethylsilyl)benzamide] | – | – | – | – | < 0 | 76 | 100 | 63
12 | CCNC(=O)c1c([Si](C)(C)C)ccc(OC)c1Cl [Example 219, 2-Chloro-N-ethyl-3-methoxy-6-(trimethylsilyl)benzamide] | – | – | – | – | 50 | 94 | 100 | 97
13 | CCNC(=O)c1c(C(F)(F)F)cccc1[Si](C)(C)C [Example 82, N-Ethyl-2-(trifluoromethyl)-6-(trimethylsilyl)benzamide] | – | – | – | – | 30 | < 0 | 57 | 58
14 | CCN(CC)C(=O)c1c(F)ccc(F)c1[Si](C)(C)C [Example 56, N,N-Diethyl-3,6-difluoro-2-(trimethylsilyl)benzamide] | – | – | – | – | 10 | 31 | 74 | 91
15 | C[Si](C)(C)c1cccc(Cl)c1C(=O)NCC(F)(F)F [Example 25, 2-Chloro-N-(2,2,2-trifluoro-ethyl)-6-(trimethylsilyl)-benzamide] | – | – | – | – | 19 | 15 | 89 | 56
16 | C[Si](C)(C)c1cccc(Cl)c1C(=O)Nc1ccccc1[N+](=O)[O-] [Example 160, 2-Chloro-N-(2-nitrophenyl)-6-(trimethylsilyl)benzamide] | – | – | – | – | 17 | 63 | 88 | 5
17 | C[Si](C)(C)c1cccc(Cl)c1C(=O)N1CCOCC1 [Example 132, N-[2-Chloro-6-(trimethylsilyl)benzoyl]-morpholine] | – | – | – | – | 54 | 15 | 46 | < 0
18 | C[Si](C)(C)c1cccc(Cl)c1C(=O)Nc1ccccc1 [Example 16, 2-Chloro-N-phenyl-6-(trimethylsilyl)-benzamide] | – | – | – | – | 11 | 27 | 76 | 3
19 | CCN(CC)C(=O)c1c(C)cccc1[Si](C)(C)C [Example 3, N,N-Diethyl-2-methyl-6-(trimethylsilyl)benzamide] | – | – | – | – | 19 | 58 | 75 | 100
20 | CCN(CC)C(=S)c1c(C)cccc1[Si](C)(C)C [Example 51, N,N-Diethyl-2-methyl-6-(trimethylsilyl)thiobenzamide] | – | – | – | – | < 0 | 19 | 100 | 77
21 | CCNC(=O)c1c(Cl)cccc1[Si](C)(C)C(C)C [Example 180, 2-Chloro-6-[dimethyl(1-methylethyl)silyl]-N-ethylbenzamide] | – | – | – | – | 85 | 82 | 90 | 96
22 | CCCN(CCC)C(=O)c1c(Cl)cccc1[Si](C)(C)C [Example 36, 2-Chloro-N,N-dipropyl-6-(trimethylsilyl)benzamide] | – | – | – | – | 26 | 69 | 100 | 88
23 | CCNC(=O)c1c(C)cccc1C(C)(C)C [Example 8, 2-(1,1-Dimethylethyl)-N-ethyl-6-methylbenzamide] | – | – | – | – | 19 | 97 | 100 | 85
24 | CCN(CC)C(=S)c1c(C)ccc(F)c1[Si](C)(C)C [Example 53, N,N-Diethyl-3-fluoro-6-methyl-2-(trimethylsilyl)thiobenzamide] | – | – | – | – | 9 | 19 | 95 | 65
25 | CCN(SC)C(=O)c1sccc1[Si](C)(C)C [Example 272, N-Ethyl-N-(methylthio)-3-(trimethylsilyl)-2-thiophenecarboxamide] | – | – | – | – | 14 | 23 | 100 | 0
26 | CCN(CC)C(=O)c1cccc(F)c1[Si](C)(C)C [Example 4, N,N-Diethyl-3-fluoro-2-(trimethylsilyl)benzamide] | – | – | – | – | < 0 | < 0 | 57 | 54
27 | CCN(C(=O)c1c(Cl)cccc1[Si](C)(C)C)C(OC)C(C)(C)C (stereo not drawn) [Example 201, 2-Chloro-N-ethyl-N-(1-methoxy-2,2-dimethylpropyl)-6-(trimethylsilyl)benzamide] | – | – | – | – | 31 | 50 | 100 | 65
